In US20090172831A1, “Methods for the production of plants resistant to HPPD herbicides” (Syngenta Limited, priority 2000, published 2009):
Several values for one entry are separate records, joined by “and”; a condition that tells them apart may be missing. Equal values may be shown once.

Experiments:
Arabidopsis HPPD = biological target: T1, Arabidopsis HPPD (Arabidopsis thaliana, UniProt P93836); assay: Inhibition of HPPD (E. coli extract) after pre-incubation with inhibitor; type: biochemical; conditions: read-out: inhibition (relative to controls)
T1 construct: made in house; host or cells: E. coli BL21 (DE3) codon+ RP
T1 sequence (P93836 1-445): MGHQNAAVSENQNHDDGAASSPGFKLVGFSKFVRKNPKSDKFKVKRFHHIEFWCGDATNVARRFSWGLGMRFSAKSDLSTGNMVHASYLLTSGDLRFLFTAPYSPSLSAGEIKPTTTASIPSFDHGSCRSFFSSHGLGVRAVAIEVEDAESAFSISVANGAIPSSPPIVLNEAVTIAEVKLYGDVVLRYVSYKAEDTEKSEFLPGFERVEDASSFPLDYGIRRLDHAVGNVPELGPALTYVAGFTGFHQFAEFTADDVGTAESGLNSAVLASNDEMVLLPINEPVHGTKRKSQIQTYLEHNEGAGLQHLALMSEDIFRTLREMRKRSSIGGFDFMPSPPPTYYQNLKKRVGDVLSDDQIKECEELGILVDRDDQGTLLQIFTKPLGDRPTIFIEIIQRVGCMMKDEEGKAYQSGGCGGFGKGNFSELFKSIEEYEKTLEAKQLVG
Experimental: Qualitative measurements of the differences in Kd values in respect of different HPPD inhibitors are obtained by pre-incubating enzyme with inhibitor and, then, subsequently, measuring the % inhibition. For example HPPD is isolated from maize seedlings, part purified and assayed by similar methods to those described by Schulz et al 1993 (FEBS LETS. 318, 162-166) and by Secor (1994) in Plant Physiol. 106, 1429-1433. Assays are run for 30 minutes and started with addition of radiolabelled hydroxyphenylpyruvate (final concentration ˜0.1-0.2 mM) following a 20-30 min period over which inhibitor is pre-incubated with the part-purified enzyme.
Using the same assay method but using HPPD from Arabidopis (obtained from E. coli cells transformed to express the Arabidopsis HPPD and prepared as an E. coli extract similar to the methods described by Garcia et al in Plant Physiol (1999) 119, 1507-1516) the following levels of inhibition (relative to controls) are observed with the following doses of herbicide versus Arabidopsis HPPD.

[1] = test system: untransformed tobacco explants; assay: Explants on MS agar containing mesotrione, bleaching; type: in vivo; conditions: MS agar + 3% sucrose
Source text: Explants (i.e. a leaf plus short segment of stem containing the auxiliary bud) are placed into MS agar (+3% sucrose) containing various concentrations of mesotrione (see above) from 0.02 to 2 ppm. In tobacco, for example, untransformed explants are fully bleached at 0.02 ppm. […] In these particular experiments, only the shoot that develops from the bud is bleached, the leaf on the explanted tissue remains green.

[2] = test system: tobacco plants transformed to express wheat HPPD; assay: Tolerance of tobacco transformed with wheat HPPD to herbicides; type: in vivo; conditions: MS agar; a number of PCR+ve transformants (0.1), a sub-set (>0.2); listed as mesotrione
Source text: These constructs were all transformed into Agrobacterium tumefaciens strain LBA4404, which in turn was used to transform tobacco, using methodology described previously.

dicot plants = assay: Herbicidal activity versus dicot plants averaged over 6 or more species; conditions: in vivo
Source text: Activity versus dicot plants refers here to herbicidal activity averaged over a range of 6 or more of those dicot weed and crop species usually used in screens used for compound discovery in the agrochemical community. Herbicidal activity versus dicot plants also refers here to that activity which is due to the inhibitor per se rather than due to some, potentially more herbicidal, metabolite of it which may be formed in planta or otherwise.

Compound | inhibition at 0.001 µM (Arabidopsis HPPD; 1 nM) | inhibition at 0.01 µM (Arabidopsis HPPD; 10 nM) | inhibition at 0.1 µM (Arabidopsis HPPD; 100 nM) | inhibition at 1 µM (Arabidopsis HPPD; 1000 nM) | concentration at which explants are fully bleached [1] | concentration tolerated with no indication of bleaching / plants looking normal [2] | herbicidal activity versus dicot plants relative to mesotrione (dicot plants)
CS(=O)(=O)c1ccc(C(=O)C2C(=O)CCCC2=O)c([N+](=O)[O-])c1 [Structure I, 2-(Nitro-4-methanesulphonylbenzoyl)-cyclohexane-1,3-dione, reference compound] | 42% | 95% | 100% | 100% | 0.02 ppm | 0.1 ppm and > 0.2 ppm | –
Cc1nc(C(F)(F)F)ccc1C(=O)C1C(=O)C2CCC(C2)C1=O (stereo not shown) [Structure II] | – | – | – | – | – | – | at least a quarter of the herbicidal activity of mesotrione
